The text below walks through data of patent US20210139507A1, “FUSED PYRIDINES WHICH ACT AS INHIBITORS OF H PGDS” (GlaxoSmithKline Intellectual Property Development Limited, priority 2017, published 2021).

T1 sequence (O60760 whole entry): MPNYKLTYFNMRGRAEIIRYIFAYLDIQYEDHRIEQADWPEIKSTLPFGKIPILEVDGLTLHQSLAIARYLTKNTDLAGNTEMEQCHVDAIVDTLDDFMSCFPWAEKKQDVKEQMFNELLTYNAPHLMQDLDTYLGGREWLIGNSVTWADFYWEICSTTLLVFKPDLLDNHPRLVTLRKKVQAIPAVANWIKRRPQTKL

The first assay has as its target T1, hematopoietic prostaglandin D synthase (H-PGDS) (Homo sapiens, UniProt O60760).
T1 construct: Full length human H-PGDS cDNA (Invitrogen Ultimate ORF IOH13026) was amplified by PCR; 6-His (N); TEV protease cleavage site (N); made in house; host or cells: E. coli BL21 (DE3*), vector pET22b+
The assay is described as follows: H-PGDS RapidFire High Throughput Mass Spectrometry Assay. It counts as biochemical. The following applies: conversion of PGH2 to PGD2 by human H-PGDS, 10 nM enzyme. The protocol:
The H-PGDS RapidFire™ mass spectrometric assay monitors conversion of prostaglandin H2 (PGH2) to prostaglandin D2 (PGD2) by hematopoietic prostaglandin D synthase (H-PGDS). In the assay format described here, the substrate (PGH2) is formed in situ by the action of cyclooxygenase-2 on arachidonic acid. This first step is set up to be fast, and generates a burst of PGH2 at ˜10 μM. The PGH2 is then further converted to PGD2 by the H-PGDS enzyme. […] Plates are then read on the RapidFire™ high throughput solid phase extraction system (Agilent) which incorporates a solid phase extraction step coupled to a triple quadrupole mass spectrometer (AB SCIEX). Relative levels of PGD2 and PGF2α, which acts as a surrogate for substrate, are measured and a percent conversion calculated. Inhibitors are characterized as compounds which lower the conversion of PGH2 to PGD2.
Full length human H-PGDS cDNA (Invitrogen Ultimate ORF IOH13026) was amplified by PCR with the addition of a 5′ 6-His tag and TEV protease cleavage site. The PCR product was digested with NdeI and XhoI and ligated into pET22b+ (Merck Novagen®). Expression was carried out in E. coli strain BL21 (DE3*) using auto-induction Overnight Express™ Instant TB medium (Merck Novagen®) supplemented with 1% glycerol. The culture was first grown at 37° C. and the temperature was reduced to 25° C. when OD600 reached 2.0. Cells were harvested by centrifugation after a further 18 hours. 10 g of E. coli cell pellet was suspended to a total volume of 80 mL in lysis buffer (20 mM Tris-Cl pH 7.5, 300 mM NaCl, 20 mM imidazole, 5 mM β-mercaptoethanol, 10% glycerol). 1 mg/mL protease inhibitors (Protease Inhibitor Cocktail Set III, Merck Calbiochem®) and 1 mg/mL lysozyme were added to the cell suspension. The suspension was then sonicated for 5 min (Ultrasonic Processor VCX 750, Cole-Parmer Instrument Co.) with a micro probe (50% amplitude, 10 sec on/off) and then centrifuged at 100,000 g for 90 minutes (at 4° C.). The supernatant was loaded onto a Ni-NTA HiTrap column (5 mL, GE Healthcare, pre-equilibrated in lysis buffer). The column was washed with 10 column volumes of lysis buffer and eluted with lysis buffer containing 500 mM imidazole. The pooled protein peak fractions were concentrated using a 10 kDa centrifugal filter at 3500 g and 4° C. (Amicon Ultra-15 centrifugal filter unit with Ultracel-10 membrane from Millipore). Further purification of the concentrated protein was carried out using gel filtration chromatography on a HiLoad 26/600 Superdex75 preparative grade column (GE Healthcare Life Sciences) using 50 mM Tris pH 7.5, 50 mM NaCl, 1 mM dithiothreitol, 1 mM MgCl2. Fractions containing the protein were pooled, concentrated as described above, and stored at −80° C.
The full length human COX-2 gene (accession number L15326) was amplified by PCR to generate an EcoRI-Hindi 11 fragment containing an in-frame FLAG tag. This was subcloned into pFastBac 1 (Invitrogen). The COX-2 FLAG plasmid was recombined into the baculovirus genome according to the BAC-to-BAC protocol described by Invitrogen. Transfection into Spodoptera frugiperda (Sf9) insect cells was performed using Cellfectin (Invitrogen), according to the manufacturer's protocol. Super Sf9 cells were cultured in EX420 media (SAFC Biosciences) to a density of approximately 1.5×10^6 cells/mL within a wave bioreactor. Recombinant virus was added at a Multiplicity of Infection (MOI) of 5 and the culture was allowed to continue for 3 days. Cells were harvested using a continuous feed centrifuge run at 2500 g at a rate of approximately 2 L/min with cooling. The resultant cell slurry was re-centrifuged in pots (2500 g, 20 min, 4° C.) and the cell paste was stored at −80° C. 342 g of cell paste was re-suspended to a final volume of 1600 mL in a buffer of 20 mM Tris-Cl pH 7.4, 150 mM NaCl, 0.1 mM EDTA, 1.3% w/v n-octyl-β-D-glucopyranoside containing 20 Complete EDTA-free Protease Inhibitor Cocktail tablets (Roche Applied Science). […]
For the molecule “2-Cyclopropyl-N-((3R,6S)-6-(2-hydroxypropan-2-yl)tetrahydro-2H-pyran-3-yl)thiazolo[4,5-b]pyridine-6-carboxamide and 2-Cyclopropyl-N-((3S,6R)-6-(2-hydroxypropan-2-yl)tetrahydro-2H-pyran-3-yl)thiazolo[4,5-b]pyridine-6-carboxamide [Example 24]”, the “Potency Range (mean pIC50)” value is “** (** = pIC50 6.0-7.0)”.
Still for that read-out and setting: to “N-(trans-4-(2-Hydroxypropan-2-yl)cyclohexyl)-2-((1S,2R)-2-methylcyclopropyl)thieno[3,2-b]pyridine-6-carboxamide and N-(trans-4-(2-hydroxypropan-2-yl)cyclohexyl)-2-((1R,2S)-2-methylcyclopropyl)thieno[3,2-b]pyridine-6-carboxamide [Example 10]” belongs “*** (*** = pIC50 7.1-8.0)”.

Staying with this assay, now noted: conversion of PGH2 to PGD2 by human H-PGDS, 10 nM enzyme; mean pIC50; read-out: Potency Range (mean pIC50) (converted).
Consider `CC(C)N(C)c1nc2ncc(C(=O)N[C@H]3CC[C@H](C(C)(C)O)CC3)cc2s1` [Example 6], for which the IC50 was 10 to 79.4 nM.
On the same count and under the same terms, to `O=C(N[C@H]1CC[C@H](C(O)C2CC2)CC1)c1cnc2nc(C3CC3)sc2c1` (relative stereo) [Example 26, 2-Cyclopropyl-N-(trans-4-(cyclopropyl(hydroxy)methyl)cyclohexyl)thiazolo[4,5-b]pyridine-6-carboxamide] belongs 10 to 79.4 nM; to `CC(C)(O)[C@H]1C[C@H](NC(=O)c2cnc3nc(C4CC4)sc3c2)C1` [Example 22, 2-Cyclopropyl-N-((trans)-3-(2-hydroxypropan-2-yl)cyclobutyl)thiazolo[4,5-b]pyridine-6-carboxamide], 100 to 1000 nM.
On the same count and under the same terms, to `C[C@H]1CCN1c1nc2ncc(C(=O)N[C@H]3CC[C@H](C(C)(C)O)CC3)cc2s1` [Example 34, N-(trans-4-(2-Hydroxypropan-2-yl)cyclohexyl)-2-((S)-2-methylazetidin-1-yl)thiazolo[4,5-b]pyridine-6-carboxamide] belongs 10 to 79.4 nM.
Same read-out and setting: to `O=C(N[C@H]1CC[C@H](OCCO)CC1)c1cnc2nc(C3CC3)sc2c1` [Example 18, 2-Cyclopropyl-N-((trans)-4-(2-hydroxyethoxy)cyclohexyl)thiazolo[4,5-b]pyridine-6-carboxamide] belongs 100 to 1000 nM; to `CSc1nc2ncc(C(=O)N[C@H]3CC[C@H](C(C)(C)O)CC3)cc2s1` [Example 39, N-((trans)-4-(2-Hydroxypropan-2-yl)cyclohexyl)-2-(methylthio)thiazolo[4,5-b]pyridine-6-carboxamide], 10 to 79.4 nM.
Take `CC(C)(O)[C@H]1CC[C@H](NC(=O)c2cnc3cc(C4CC4)sc3c2)CC1` [Example 2]: the IC50 is 10 to 79.4 nM.
The same measure, in the same setting: to `CC(C)(O)C12CC(NC(=O)c3cnc4cc(C5CC5)sc4c3)(C1)C2` [Example 12, 2-Cyclopropyl-N-(3-(2-hydroxypropan-2-yl)bicyclo[1.1.1]pentan-1-yl)thieno[3,2-b]pyridine-6-carboxamide] belongs 10 to 79.4 nM.
For `CC(C)(O)[C@H]1CC[C@H](NC(=O)c2cnc3nc(N4CCC4)sc3c2)CC1` [Example 29, 2-(Azetidin-1-yl)-N-(trans-4-(2-hydroxypropan-2-yl)cyclohexyl)thiazolo[4,5-b]pyridine-6-carboxamide], the IC50 was 100 to 1000 nM.
The same measure, in the same setting: to `COc1nc2ncc(C(=O)N[C@H]3CC[C@H](C(C)(C)O)CC3)cc2s1` [Example 40, N-((trans)-4-(2-Hydroxypropan-2-yl)cyclohexyl)-2-methoxythiazolo[4,5-b]pyridine-6-carboxamide] belongs 100 to 1000 nM.
With `CC(C)(O)[C@H]1CC[C@H](NC(=O)c2cnc3nc(N(C4CC4)C4CC4)sc3c2)CC1` [Example 36, 2-(Dicyclopropylamino)-N-(trans-4-(2-hydroxypropan-2-yl)cyclohexyl)thiazolo[4,5-b]pyridine-6-carboxamide], the IC50 is 1260 to 10000 nM.
Regarding `CC(C)(O)C1CC2(CC(NC(=O)c3cnc4nc(C5CC5)sc4c3)C2)C1` (racemic) [Example 15, (Racemic)-2-cyclopropyl-N-(6-(2-hydroxypropan-2-yl)spiro[3.3]heptan-2-yl)thiazolo[4,5-b]pyridine-6-carboxamide], the IC50 is 10 to 79.4 nM.
Still for that read-out and setting: in the case of `O=C(N[C@H]1CCNC1=O)c1cnc2nc(C3CC3)sc2c1` [Example 19, (S)-2-Cyclopropyl-N-(2-oxopyrrolidin-3-yl)thiazolo[4,5-b]pyridine-6-carboxamide] it was 100 to 1000 nM.
As for `CC(C)(F)c1nc2ncc(C(=O)N[C@H]3CC[C@H](C(C)(C)O)CC3)cc2s1` [Example 25, 2-(2-Fluoropropan-2-yl)-N-(trans-4-(2-hydroxypropan-2-yl)cyclohexyl)thiazolo[4,5-b]pyridine-6-carboxamide], the IC50 was 100 to 1000 nM.
On the same count and under the same terms, in the case of `C[C@]1(O)C[C@@H](NC(=O)c2cnc3cc(C4CC4)sc3c2)C1` [Example 4] it was 1260 to 10000 nM; in that of `CN(c1nc2ncc(C(=O)N[C@H]3CC[C@H](C(C)(C)O)CC3)cc2s1)C1CC1` [Example 35, 2-(Cyclopropyl(methyl)amino)-N-(trans-4-(2-hydroxypropan-2-yl)cyclohexyl)thiazolo[4,5-b]pyridine-6-carboxamide], 100 to 1000 nM.
Still for that read-out and setting: in the case of `O=C(NC1C[C@H](O)C[C@@H](O)C1)c1cnc2nc(C3CC3)sc2c1` (mixture of isomers) [Example 41, Racemic 2-cyclopropyl-N-((3S,5S)-3,5-dihydroxycyclohexyl)thiazolo[4,5-b]pyridine-6-carboxamide] it was 100 to 1000 nM.
The same measure, in the same setting: to `CC(C)(O)[C@H]1CC[C@H](NC(=O)c2cnc3nc(N4CCCC4)sc3c2)CC1` [Example 33, N-(trans-4-(2-Hydroxypropan-2-yl)cyclohexyl)-2-(pyrrolidin-1-yl)thiazolo[4,5-b]pyridine-6-carboxamide] belongs 100 to 1000 nM; to `CC(C)N(c1nc2ncc(C(=O)N[C@H]3CC[C@H](C(C)(C)O)CC3)cc2s1)C(C)C` [Example 37, 2-(Diisopropylamino)-N-(trans-4-(2-hydroxypropan-2-yl)cyclohexyl)thiazolo[4,5-b]pyridine-6-carboxamide], 1260 to 10000 nM; to `CS(=O)(=O)CC(O)[C@H]1CC[C@H](NC(=O)c2cnc3nc(C4CC4)sc3c2)CC1` (mixture of isomers) [Example 28, Racemic 2-cyclopropyl-N-(trans-4-(1-hydroxy-2-(methylsulfonyl)ethyl)cyclohexyl)thiazolo[4,5-b]pyridine-6-carboxamide], 100 to 1000 nM.
As to `Cn1nnnc1N1CCC(NC(=O)c2cnc3nc(C4CC4)sc3c2)CC1` [Example 31, 2-Cyclopropyl-N-(1-(1-methyl-1H-tetrazol-5-yl)piperidin-4-yl)thiazolo[4,5-b]pyridine-6-carboxamide], the IC50 is 100 to 1000 nM.
On the same count and under the same terms, to `CC(N[C@H]1CC[C@H](NC(=O)c2cnc3nc(C4CC4)sc3c2)CC1)C(F)F` (relative stereo) [Example 23, 2-Cyclopropyl-N-(trans-4-((1,1-difluoropropan-2-yl)amino)cyclohexyl)thiazolo[4,5-b]pyridine-6-carboxamide] belongs 100 to 1000 nM; to `CNc1nc2ncc(C(=O)N[C@H]3CC[C@H](C(C)(C)O)CC3)cc2s1` [Example 7], 100 to 1000 nM.
